{"source": "patent US7060712B2", "about": "“Crystalline form of aryl aniline β2 adrenergic receptor agonist” (Theravance, Inc., priority 2003, dated 2006)", "assay": "Solid state stability testing on storage", "format": "physicochemical", "procedure": "Samples (20 and 80 mg each) of the Form A material produced by the process of Example 7 were stored at 25° C. and 60% relative humidity and at 40° C. and 75% relative humidity in open containers and in closed containers.\nX-ray powder diffraction patterns were obtained with a Shimadzu 6000 diffractometer using Cu Kα (40.0 kV, 35.0 mA) radiation. The analysis was performed with the goniometer running in continuous-scan mode of 2°/min with a step size of 0.020 over a range of 4 to 45°. Samples were prepared on glass specimen holders as a thin layer of powdered material. The instruments was calibrated to a silicon metal standard.\nDifferential scanning calorimetry traces were obtained with a TA instruments model DSCQ10. Samples were placed in sealed aluminum pans for analysis with an empty pan serving as the reference. Samples were equilibrated at 30° C. and heated at 5° C. per minute to a temperature of 300° C. The instrument was calibrated with an indium standard.\nThermogravimetric analysis was conducted using a TA instruments model Q50. Samples were weighed in aluminum pans and heated from 30° C. to 300° C. at a rate of 5° C./min.\nHPLC analysis was performed using reverse phase conditions and a gradient of 2% to 90% acetonitrile over 6 minutes. Solvents contain 0.1% trifluoroacetic acid. Column: Zorbax 2.1×50 mm, flow rate 0.5 mL/min, observed wavelength 214 nm.", "key": {"[1]": {"details": "solid stored four weeks at 25° C. and 60% relative humidity in closed containers"}}, "data": [{"smiles": "COc1ccc(Nc2ccc(CCNC[C@H](O)c3ccc(O)c4[nH]c(=O)ccc34)cc2)cc1-c1ccccc1.Cl", "note": "[Form A, N-{2-[4-(3-phenyl-4-methoxyphenyl)aminophenyl]ethyl}-(R)-2-hydroxy-2-(8-hydroxy-2(1H)-quinolinon-5-yl)ethylamine monohydrochloride water/isopropanol solvate]", "values": [{"measurement": "stability upon storage (HPLC degradant peaks; DSC, TGA and XRPD traces)", "setting": "four weeks at 25° C. and 60% humidity in closed containers", "value": "stable"}, {"measurement": "changes in analysis by DSC and TGA", "setting": "[1]", "value": "no detectable differences"}, {"measurement": "chemical degradation, analysis by HPLC", "setting": "[1]", "value": "no detectable chemical degradation"}, {"measurement": "solvent content on storage in open containers", "setting": "solid stored in open containers over four weeks (25° C./60% RH and 40° C./75% RH)", "value": "loss of isopropanol"}]}]}
